Values joined by “and” are separate entries in the source; they are usually repeats but may differ in a detail not shown here. Identical values can stand only once. Like-named read-outs stand apart in the source and are kept apart here.
Assays:
[1] = In vitro mouse plasma protein binding (equilibrium dialysis); type: in vitro ADME; settings: read-out: Fp, u (%) plasma fraction unbounded
Protocol: Studies were performed by the DMPK Group at Shanghai ChemPartner Co., Ltd., using the equilibrium dialysis method. Values are the mean of two technical replicates.

SH-SY5Y cells = experiment: Sphingolipid levels in SH-SY5Y cells by LC/MS; type: cell-based, human
Protocol: SH-SY5Y cells were purchased from Sigma Aldrich (Italy) and cultured in Dulbecco’s modified Eagle’s medium (DMEM) containing 10% fetal bovine serum at 37 °C and 5% CO2. Drugs were dissolved in DMSO (10 mM) and diluted in the cell culture medium with reduced serum (1%) for cell treatments.
Lipid extraction and sphingolipid measurements were performed as previously described.[36],[37] Lipids were extracted with a CHCl3/MeOH mixture (2:1, 3 mL) containing internal standards. The organic phase was collected, dried under nitrogen, and dissolved in CHCl3/MeOH (1:3) for LC/MS analyses. Ceramides and sphingosine were analyzed by LC/MS/MS, using a Waters ACQUITY UPLC coupled to a Waters Xevo TQMS and interfaced with an ESI ion source. Separation was performed on a Waters ACQUITY BEH C18 1.7 μm column (2.1 × 50 mm) at 60 °C. A linear gradient of 0.1% formic acid in MeCN/isopropyl alcohol (20:80) as solvent B in 0.1% formic acid in MeCN/H2O (20:80) as solvent A was applied at a flow rate of 0.4 mL min^–1. Detection of sphingolipids was performed in positive-ion mode. Capillary voltage was 3.5 kV, and cone voltage was 25 V. The source temperature and desolvation temperatures were set at 120 and 600 °C, respectively. Desolvation gas and cone gas (N2) flows were 800 and 20 L h^–1, respectively. Ceramides were identified by comparison of their LC retention times and MS/MS fragmentation patterns with those of authentic standards (Avanti Polar Lipids). Multiple Reaction Monitoring (MRM) ion chromatograms were used to quantify myristoyl ceramide (C14:0, m/z: 492.5 > 264.3), palmitoyl ceramide (C16:0, m/z 520.3 > 264.3), stearoyl ceramide (C18:0, m/z: 548.3 > 264.3), lignoceroyl ceramide (C24:0, m/z: 632.3 > 264.3), and nervonoyl ceramide (C24:1 m/z: 630.3 > 264.3) using lauroyl ceramide standard (m/z: 464.5 > 264.3). Detection and analysis were controlled by Waters MassLynx software version 4.1. Sphingosine was identified by comparison of its LC retention times and MS2 fragmentation patterns with those of authentic standards (Avanti Polar Lipids). Extracted ion chromatograms were used to quantify sphingosine standard (d18:1, m/z: 300.5 > 282.5). Detection and analysis were controlled by Waters MassLynx software version 4.1. Calibration curves were prepared for every experiment.

[2] = Plasma and brain concentrations in 4L;C* mice; type: in vivo, mouse; settings: 1 h after last dose (day 14)
Protocol: 4L;C* mice (C57BL/6 J/129SvEV) were randomly assigned to three treatment groups (N = 4–8 with mixed males and females) and dosed once a day i.p. with 90 or 30 mg kg^–1 of 22m or vehicle. Treatment started at 5 days of age for a duration of 14 days. The application volume was set to 10 μL per gram of body weight, and dosage was adjusted accordingly. Animals of all groups were sacrificed 1 h after the last dose, and the brain tissues and plasma were collected. The left brain containing cortex, cerebella, thalamus, and brainstem was analyzed for SphL levels by MS. Data were analyzed using the Student t test. The right brain containing cortex, cerebella, thalamus, and brainstem and plasma were analyzed for drug levels of 22m. All mice were housed under pathogen-free conditions in the animal facility, and animal experiment was performed according to the IACUC approved protocol (2018-0056) at Cincinnati Children’s Hospital Research Foundation. Wild Type (WT) (GALC+/+) and Twitcher (Twi) (GALC–/−) mice were genotyped by PCR as previously described.[58] Twi mice were randomly assigned to three treatment groups (N = 3 males + N = 3 females for each group) and dosed once a day i.p. with 90 or 30 mg kg^–122m or vehicle for a duration of 20 days. Treatment started at 10 days of age. The application volume was set to 10 μL per gram of body weight, and dosage was adjusted accordingly. Two groups (N = 3 males + N = 3 females for each group) of WT controls treated with vehicle or high dose (90 mg kg^–1) of 22m were also included in the study. Animals of all groups were sacrificed 1 h after the last dose, and the brain tissues and plasma were collected. The left brain containing cortex, cerebella, thalamus, and brainstem was analyzed for SphL levels by MS. Data were analyzed using the Student t test. The right brain containing cortex, cerebella, thalamus, and brainstem and plasma were analyzed for drug levels of 22m. All animal work in this study was performed in accordance with approved animal protocols from the Animal Care and Use Committee at the University of Illinois at Chicago.

[3] = In vitro microsomal stability study; type: in vitro ADME; settings: mouse liver microsomes
Method in brief: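 Test compound at 4.6 μM final was incubated at 37 °C with mouse liver microsomes in 0.1 M Tris HCl (pH 7.4), with an NADPH/G6P/G6PDH/MgCl2 cofactor system, and sampled at 0–60 min. Parent remaining relative to t = 0 was measured by LC/MS/MS. t1/2 came from one-phase decay regression, as the mean of at least two independent experiments.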

CC(C)CNC(=O)n1c(=O)oc2cc(C3CCN(C)CC3)ccc21 [22m, N-Isobutyl-6-(1-methyl-4-piperidyl)-2-oxo-1,3-benzoxazole-3-carboxamide]
fraction unbound [1]: 0.138
hexosylceramide (HexCer) (d18:1/16:0) levels (SH-SY5Y cells): no major variations
sphingomyelin (SM) (d18:1/16:0) levels (SH-SY5Y cells): no major variations
ceramide levels, Cer (d18:0/16:0) and Cer (d18:1/16:0) (SH-SY5Y cells; 3 h of incubation): intracellular accumulation of various ceramide species
sphingosine levels (SH-SY5Y cells; 3 h of incubation): decrease in the levels of sphingosine
concentration at 1 h ([2]; 4L;C* mice, 90 mg kg^–1 i.p., read-out: Cb, u (μM) brain unbounded concentration): 2.61 µM
concentration at 1 h ([2]; both sexes, 4L;C* (C57BL/6 J/129SvEV), mouse, brain, ip, 30 mg kg^–1, 4L;C* mice, 30 mg kg^–1 i.p., read-out: Cb (μM) brain concentration): 110 µM
concentration at 1 h ([2]; both sexes, 4L;C* (C57BL/6 J/129SvEV), mouse, brain, ip, 30 mg kg^–1, 4L;C* mice, 30 mg kg^–1 i.p., read-out: Cb, u (μM) brain unbounded concentration): 0.77 µM
concentration at 1 h ([2]; both sexes, 4L;C* (C57BL/6 J/129SvEV), mouse, brain, ip, 90 mg kg^–1, 4L;C* mice, 90 mg kg^–1 i.p., read-out: Cb (μM) brain concentration): 373 µM
concentration at 1 h ([2]; both sexes, 4L;C* (C57BL/6 J/129SvEV), mouse, brain, ip, 90 mg kg^–1, 4L;C* mice, 90 mg kg^–1 i.p., read-out: Cb, u (μM) brain unbounded concentration): 2.6 µM
concentration at 1 h ([2]; both sexes, 4L;C* (C57BL/6 J/129SvEV), mouse, plasma, ip, 30 mg kg^–1, 4L;C* mice, 30 mg kg^–1 i.p., read-out: Cp (μM) plasma concentration): 3.08 µM
concentration at 1 h ([2]; both sexes, 4L;C* (C57BL/6 J/129SvEV), mouse, plasma, ip, 30 mg kg^–1, 4L;C* mice, 30 mg kg^–1 i.p., read-out: Cp,u (μM) plasma unbounded concentration): 0.42 µM
concentration at 1 h ([2]; both sexes, 4L;C* (C57BL/6 J/129SvEV), mouse, plasma, ip, 90 mg kg^–1, 4L;C* mice, 90 mg kg^–1 i.p., read-out: Cp (μM) plasma concentration): 16.8 µM
concentration at 1 h ([2]; both sexes, 4L;C* (C57BL/6 J/129SvEV), mouse, plasma, ip, 90 mg kg^–1, 4L;C* mice, 90 mg kg^–1 i.p., read-out: Cp,u (μM) plasma unbounded concentration): 2.32 µM
m-LM [% at 60 min] ([3]; % remaining at 60 min): 76% and 80%
half-life at 4.6 μM ([3]; pH 7.4, read-out: m-LM t1/2): > 1 h
